# Measured values as given in EP0659751A1, “Optically active azole derivatives, their production and use” (TAKEDA CHEMICAL INDUSTRIES, LTD., priority 1993, dated 1995).
# Tested on: Candida albicans TA
# Assay: protective effect against experimental infection in mice
# Type: in vivo, Crj:CDF₁ mice
# Conditions: po, 168 h; mice inoculated i.v. with minimum lethal dose of Candida albicans TA; suspension in 0.5% CMC administered orally once immediately after infection; Reed and Muench method from survival rate 7 days after infection
# Protocol: The protective effects of the compound of the present invention against the experimental infection in mice are shown in the following Table 1. Test Method: Five-week-old Crj:CDF₁ mice were inoculated with the minimum lethal dose of Candida albicans TA intravenously. The test compound was suspended in a solution of 0.5% sodium carboxymethylcellulose (CMC). The suspension was administered orally once immediately after infection. The activity was expressed in terms of ED₅₀ values calculated by the Reed and Muench method from the survival rate 7 days after infection.
row,Structure (SMILES),ED50
1,"C[C@@H](n1ncn(-c2ccc(N3CCN(c4ccc(OC(F)(F)C(F)F)cc4)CC3)cc2)c1=O)[C@](O)(Cn1cncn1)c1ccc(F)cc1F [Example 15, 2-[(1R,2R)-2-(2,4-difluorophenyl)-2-hydroxy-1-methyl-3-(1H-1,2,4-triazol-1-yl)propyl]-4-[4-[4-[4-(1,1,2,2-tetrafluoroethoxy)phenyl]-1-piperazinyl]phenyl]-3(2H,4H)-1,2,4-triazolone]",2.8 mg/kg
2,"C[C@@H](n1ncn(-c2ccc(OCC(F)(F)C(F)F)cc2)c1=O)[C@](O)(Cn1cncn1)c1ccccc1F [Example 16, 2-[(1R,2R)-2-(2-fluorophenyl)-2-hydroxy-1-methyl-3-(1H-1,2,4-triazol-1-yl)propyl]-4-[4-(2,2,3,3-tetrafluoropropoxy)phenyl]-3(2H,4H)-1,2,4-triazolone]",0.25 mg/kg
3,"C[C@@H](n1ncn(-c2ccc(C(F)(F)F)cc2)c1=O)[C@](O)(Cn1cncn1)c1ccccc1F [Example 17, 2-[(1R,2R)-2-(2-fluorophenyl)-2-hydroxy-1-methyl-3-(1H-1,2,4-triazol-1-yl)propyl]-4-(4-trifluoromethylphenyl)-3(2H,4H)-1,2,4-triazolone]",0.22 mg/kg
4,"C[C@@H](n1ncn(-c2ccc(OC(F)(F)F)cc2)c1=O)[C@](O)(Cn1cncn1)c1ccccc1F [Example 18, 2-[(1R,2R)-2-(2-fluorophenyl)-2-hydroxy-1-methyl-3-(1H-1,2,4-triazol-1-yl)propyl]-4-(4-trifluoromethoxyphenyl)-3(2H,4H)-1,2,4-triazolone]",0.18 mg/kg
5,"C[C@@H](n1ncn(-c2ccc(OCC(F)(F)F)cc2)c1=O)[C@](O)(Cn1cncn1)c1ccccc1F [Example 19, 2-[(1R,2R)-2-(2-fluorophenyl)-2-hydroxy-1-methyl-3-(1H-1,2,4-triazol-1-yl)propyl]-4-[4-(2,2,2-trifluoroethoxy)phenyl]-3(2H,4H)-1,2,4-triazolone]",0.18 mg/kg
6,"C[C@@H](n1ncn(-c2ccc(OC(F)(F)C(F)F)cc2)c1=O)[C@](O)(Cn1cncn1)c1ccccc1F [Example 20, 2-[(1R,2R)-2-(2-fluorophenyl)-2-hydroxy-1-methyl-3-(1H-1,2,4-triazol-1-yl)propyl]-4-[4-(1,1,2,2-tetrafluoroethoxy)phenyl]-3(2H,4H)-1,2,4-triazolone]",0.18 mg/kg
7,"Cc1nn([C@H](C)[C@](O)(Cn2cncn2)c2ccccc2F)c(=O)n1-c1ccc(OC(F)(F)C(F)F)cc1 [Example 21, 2-[(1R,2R)-2-(2-fluorophenyl)-2-hydroxy-1-methyl-3-(1H-1,2,4-triazol-1-yl)propyl]-5-methyl-4-[4-(1,1,2,2-tetrafluoroethoxy)phenyl]-3(2H,4H)-1,2,4-triazolone]",0.21 mg/kg
8,"C[C@@H](n1cnn(-c2ccc(OC(F)(F)C(F)F)cc2)c1=O)[C@](O)(Cn1cncn1)c1ccccc1F [Example 22, 4-[(1R,2R)-2-(2-fluorophenyl)-2-hydroxy-1-methyl-3-(1H-1,2,4-triazol-1-yl)propyl]-2-[4-(1,1,2,2-tetrafluoroethoxy)phenyl]-3(2H,4H)-1,2,4-triazolone]",< 0.13 mg/kg
9,"C[C@@H](n1cnn(-c2ccc(OCC(F)(F)C(F)F)cc2)c1=O)[C@](O)(Cn1cncn1)c1ccccc1F [Example 23, 4-[(1R,2R)-2-(2-fluorophenyl)-2-hydroxy-1-methyl-3-(1H-1,2,4-triazol-1-yl)propyl]-2-[4-(2,2,3,3-tetrafluoropropoxy)phenyl]-3(2H,4H)-1,2,4-triazolone]",0.16 mg/kg
10,"C[C@@H](n1ncn(-c2ccc(OC(F)(F)C(F)F)cc2)c1=O)[C@](O)(Cn1cncn1)c1ccc(F)cc1 [Example 25, 2-[(1R,2R)-2-(4-fluorophenyl)-2-hydroxy-1-methyl-3-(1H-1,2,4-triazol-1-yl)propyl]-4-[4-(1,1,2,2-tetrafluoroethoxy)phenyl]-3(2H,4H)-1,2,4-triazolone]",0.65 mg/kg
11,"Cc1nn([C@H](C)[C@](O)(Cn2cncn2)c2ccc(F)cc2)c(=O)n1-c1ccc(OC(F)(F)C(F)F)cc1 [Example 26, 2-[(1R,2R)-2-(4-fluorophenyl)-2-hydroxy-1-methyl-3-(1H-1,2,4-triazol-1-yl)propyl]-5-methyl-4-[4-(1,1,2,2-tetrafluoroethoxy)phenyl]-3(2H,4H)-1,2,4-triazolone]",0.35 mg/kg
12,"C[C@@H](n1cnn(-c2ccc(OC(F)(F)C(F)F)cc2)c1=O)[C@](O)(Cn1cncn1)c1ccc(F)cc1 [Example 27, 4-[(1R,2R)-2-(4-fluorophenyl)-2-hydroxy-1-methyl-3-(1H-1,2,4-triazol-1-yl)propyl]-2-[4-(1,1,2,2-tetrafluoroethoxy)phenyl]-3(2H,4H)-1,2,4-triazolone]",0.56 mg/kg
13,"C[C@@H](n1cnn(-c2ccc(OCC(F)(F)C(F)F)cc2)c1=O)[C@](O)(Cn1cncn1)c1ccc(F)cc1 [Example 28, 4-[(1R,2R)-2-(4-fluorophenyl)-2-hydroxy-1-methyl-3-(1H-1,2,4-triazol-1-yl)propyl]-2-[4-(2,2,3,3-tetrafluoropropoxy)phenyl]-3(2H,4H)-1,2,4-triazolone]",0.71 mg/kg
14,"Cc1nn(-c2ccc(OC(F)(F)C(F)F)cc2)c(=O)n1[C@H](C)[C@](O)(Cn1cncn1)c1ccc(F)cc1F [Example 29, 4-[(1R,2R)-2-(2,4-difluorophenyl)-2-hydroxy-1-methyl-3-(1H-1,2,4-triazol-1-yl)propyl]-5-methyl-2-[4-(1,1,2,2-tetrafluoroethoxy)phenyl]-3(2H,4H)-1,2,4-triazolone]",2 mg/kg
